Source: patent US8466153B2, “Piperidinylamino-pyridazines and their use as fast dissociating dopamine 2 receptor antagonists” (Janssen Pharmaceutica N.V., priority 2006, dated 2013)
Like-named read-outs stand apart in the source and are kept apart here.

Experiments:
[1] = test system: Apomorphine-induced agitation, stereotypy in rats; experiment: Inhibition of the apomorphine induced agitation test in rats; format: in vivo; details: Rattus norvegicus, 0.5 h, apomorphine 1.0 mg/kg i.v. at 30 min, male Wiga Wistar rats
Protocol: Male Wiga Wistar rats (180-280 g) were administered test compound (sc: subcutaneously; po: orally; n=3 per dose; dose=0.16, 0.63 and 2.5 mg/kg) or solvent and then challenged with apomorphine (1.0 mg/kg, i.v.) at 30 min. The effects of the test compound on the behavioral changes were evaluated according to all-or-none criteria based on the distribution of results in a large series of control data obtained in solvent-pretreated rats.
Apomorphine (1.0 mg/kg, i.v.)-induced agitation, stereotypy (compulsive sniffing, licking, chewing), was scored every 5 min over the first hour after injection of apomorphine. The score system was: (3) pronounced, (2) moderate, (1) slight, and (0) absent. […] The table below gives the lowest active dose at which 3 out of 3 rats tested met one of the criteria for drug-induced inhibition of agitation.

[2] = molecular target: T1, human Dopamine D2L receptor (Homo sapiens, UniProt P14416); experiment: In vitro binding affinity for human D2L receptor ([3H]spiperone competition); details: membranes of human D2L receptor-transfected CHO cells, 30 min, 37° C.
T1 construct: expressed in transfected cells; host or cells: CHO cells
Excerpt: In order to find antipsychotic compounds active against positive symptoms and having an improved safety profile (low EPS incidence and no metabolic disorders), we have screened for compounds selectively interacting with the dopamine D2 receptor and dissociating fast from this receptor. Compounds were first screened for their D2 affinity in a binding assay using [^3H]spiperone and human D2L receptor cell membranes.
Frozen membranes of human Dopamine D2L receptor-transfected CHO cells were thawed, briefly homogenised using an Ultra-Turrax T25 homogeniser and diluted in Tris-HCl assay buffer containing NaCl, CaCl2, MgCl2, KCl (50, 120, 2, 1, and 5 mM respectively, adjusted to pH 7.7 with HCl) to an appropriate protein concentration optimised for specific and non-specific binding. Radioligand [^3H]Spiperone (NEN, specific activity ˜70 Ci/mmol) was diluted in assay buffer at a concentration of 2 nmol/L. Prepared radioligand (50 μl), along with 50 μl of either the 10% DMSO control, Butaclamol (10^−6 mol/l final concentration), or compound of interest, was then incubated (30 min, 37° C.) with 400 μl of the prepared membrane solution. Membrane-bound activity was filtered through a Packard Filtermate harvester onto GF/B Unifilterplates and washed with ice-cold Tris-HCl buffer (50 mM; pH 7.7; 6×0.5 ml). Filters were allowed to dry before adding scintillation fluid and counting in a Topcount scintillation counter. Percentage specific bound and competition binding curves were calculated using S-Plus software (Insightful).

human D2L receptor = molecular target: T2, human D2L receptor (Homo sapiens, UniProt P14416); experiment: Fast dissociation (indirect [3H]spiperone filter assay); format: binding; details: compound at 4 times its IC50 pre-incubated 1 h at 25° C.; [3H]spiperone 1 nM on filter for 5 minutes
T2 construct: expressed in transfected cells
Protocol: Compounds were first screened for their D2 affinity in a binding assay using [^3H]spiperone and human D2L receptor cell membranes.
Immediately after, the vacuum was released. 0.4 ml of pre-warmed buffer (25° C.) containing 1 nM [^3H]spiperone was added on the filter for 5 minutes. The incubation was stopped by initiating the vacuum and immediate rinsing with 2×5 ml of ice-cold buffer. The filter-bound radioactivity was measured in a liquid scintillation spectrometer. The principle of the assay is based on the assumption that the faster a compound dissociates from the D2 receptor, the faster [^3H]spiperone binds to the D2 receptor.

[3] = test system: panel of more than 50 common G-protein coupled receptors (CEREP); experiment: Screen in a panel of more than 50 common G-protein coupled receptors (CEREP); format: binding; details: panel of more than 50 GPCRs
Excerpt: Selected compounds E15, E16, E17 and E18 were further screened in a panel of more than 50 common G-protein coupled receptors (CEREP) and found to have a clean profile, that is to have low affinity for the tested receptors.

[4] = sc, subcutaneously, read-out: sc Dose: lowest active dose at which 3 out of 3 rats met a criterion for inhibition of agitation
[5] = po, orally, read-out: po Dose: lowest active dose at which 3 out of 3 rats met a criterion for inhibition of agitation

T1 sequence (P14416 whole entry): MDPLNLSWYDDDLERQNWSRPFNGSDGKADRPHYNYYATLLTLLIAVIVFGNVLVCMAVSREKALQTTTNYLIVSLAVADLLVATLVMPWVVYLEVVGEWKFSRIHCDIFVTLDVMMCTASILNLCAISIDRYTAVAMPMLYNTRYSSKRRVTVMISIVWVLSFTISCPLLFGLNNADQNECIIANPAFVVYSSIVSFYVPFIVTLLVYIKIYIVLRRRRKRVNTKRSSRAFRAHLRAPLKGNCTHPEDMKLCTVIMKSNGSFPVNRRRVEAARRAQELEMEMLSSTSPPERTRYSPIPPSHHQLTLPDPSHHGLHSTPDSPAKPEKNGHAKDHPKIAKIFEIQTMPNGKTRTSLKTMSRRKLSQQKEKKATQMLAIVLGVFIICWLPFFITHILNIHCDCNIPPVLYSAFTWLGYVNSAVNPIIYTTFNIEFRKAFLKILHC
T2 sequence (P14416 whole entry): as above

Row | Compound | minimal effective dose [1, 4] [mg/kg] | IC50 [2] [µM] | melting point [°C] | minimal effective dose [1, 5] [mg/kg] | % Dissociation (human D2L receptor) [%] | affinity profile for the tested receptors [3]
1 | N#Cc1ccc(NC2CCN(Cc3ccccc3)CC2)nn1 [Example D2, 6-(1-Benzyl-piperidin-4-ylamino)-pyridazin-3-carbonitrile] | 2.5 | 2.95 | – | – | – | –
2 | N#Cc1ccc(NC2CCN(Cc3ccc(F)c(F)c3)CC2)nn1 [Example E1, 6-[1-(3,4-Difluoro-benzyl)-piperidin-4-ylamino]-pyridazine-3-carbonitrile] | 2.5 | 4.07 | 189.86 | – | – | –
3 | N#Cc1ccc(NC2CCN(Cc3ccc(F)cc3)CC2)nn1 [Example E2, 6-[1-(4-Fluoro-benzyl)-piperidin-4-ylamino]-pyridazine-3-carbonitrile] | 0.63 | 3.24 | 187.44 | 0.63 | – | –
4 | N#Cc1ccc(NC2CCN(Cc3ccc(Cl)cc3)CC2)nn1 [Example E3, 6-[1-(4-Chloro-benzyl)-piperidin-4-ylamino]-pyridazine-3-carbonitrile] | 0.63 | 1.05 | 209.77 | – | 87 | –
5 | Cc1ccc(CN2CCC(Nc3ccc(C#N)nn3)CC2)cc1F [Example E4, 6-[1-(3-Fluoro-4-methyl-benzyl)-piperidin-4-ylamino]-pyridazine-3-carbonitrile] | 0.16 | 0.407 | 171.84 | – | 82 | –
6 | N#Cc1ccc(NC2CCN(Cc3cccc(F)c3)CC2)nn1 [Example E5, 6-[1-(3-Fluoro-benzyl)-piperidin-4-ylamino]-pyridazine-3-carbonitrile] | 2.5 | 6.03 | 190.3 | – | – | –
7 | Cc1ccc(CN2CCC(Nc3ccc(C#N)nn3)CC2)cc1 [Example E6, 6-[1-(4-Methyl-benzyl)-piperidin-4-ylamino]-pyridazine-3-carbonitrile] | 2.5 | 0.955 | 191.62 | – | 84 | –
8 | N#Cc1ccc(NC2CCN(Cc3ccc(C(F)(F)F)cc3)CC2)nn1 [Example E7, 6-[1-(4-Trifluoromethyl-benzyl)-piperidin-4-ylamino]-pyridazine-3-carbonitrile] | 0.63 | > 10 | 243.1 | 2.5 | 93.50 | –
9 | N#Cc1ccc(NC2CCN(Cc3ccc(C(F)(F)F)c(F)c3)CC2)nn1 [Example E8, 6-[1-(3-Fluoro-4-trifluoromethyl-benzyl)-piperidin-4-ylamino]-pyridazine-3-carbonitrile] | 2.5 | 7.59 | 178.6 | 2.5 | 89.50 | –
10 | N#Cc1ccc(NC2CCN(Cc3ccc(F)c(C(F)(F)F)c3)CC2)nn1 [Example E9, 6-[1-(4-Fluoro-3-trifluoromethyl-benzyl)-piperidin-4-ylamino]-pyridazine-3-carbonitrile] | 2.5 | 6.76 | 183.1 | – | – | –
11 | Cc1ccc(CN2CCC(Nc3ccc(C#N)nn3)CC2)cc1C(F)(F)F [Example E10, 6-[1-(4-Methyl-3-trifluoromethyl-benzyl)-piperidin-4-ylamino]-pyridazine-3-carbonitrile] | > 2.5 | 6.46 | 187.3 | – | – | –
12 | N#Cc1ccc(NC2CCN(Cc3cc(C(F)(F)F)cc(C(F)(F)F)c3)CC2)nn1 [Example E11, 6-[1-(3,5-Bis-trifluoromethyl-benzyl)-piperidin-4-ylamino]-pyridazine-3-carbonitrile] | – | > 10 | 125 | – | – | –
13 | N#Cc1ccc(NC2CCN(Cc3cc(C(F)(F)F)ccc3F)CC2)nn1 [Example E12, 6-[1-(2-Fluoro-5-trifluoromethyl-benzyl)-piperidin-4-ylamino]-pyridazine-3-carbonitrile] | > 2.5 | 6.31 | 142.5 | – | – | –
14 | N#Cc1ccc(NC2CCN(Cc3cccc(Cl)c3)CC2)nn1 [Example E13, 6-[1-(3-Chloro-benzyl)-piperidin-4-ylamino]-pyridazine-3-carbonitrile] | 2.5 | 3.24 | 151 | – | – | –
15 | N#Cc1ccc(NC2CCN(Cc3ccc(OC(F)(F)F)c(Cl)c3)CC2)nn1 [Example E14, 6-[1-(3-Chloro-4-trifluoromethoxy-benzyl)-piperidin-4-ylamino]-pyridazine-3-carbonitrile] | – | > 10 | – | – | – | –
16 | N#Cc1ccc(NC2CCN(Cc3cc(F)cc(F)c3)CC2)nn1 [Example E15, 6-[1-(3,5-Difluoro-benzyl)-piperidin-4-ylamino]-pyridazine-3-carbonitrile] | 0.63 | 6.61 | 187.9 | 1.25 | 93.50 | low affinity
17 | N#Cc1ccc(NC2CCN(Cc3cccc(C(F)(F)F)c3)CC2)nn1 [Example E16, 6-[1-(3-Trifluoromethyl-benzyl)-piperidin-4-ylamino]-pyridazine-3-carbonitrile] | 0.63 | 1.41 | 170.3 | 0.63 | 79.50 | low affinity
18 | N#Cc1ccc(NC2CCN(Cc3cc(F)cc(C(F)(F)F)c3)CC2)nn1 [Example E17, 6-[1-(3-Fluoro-5-trifluoromethyl-benzyl)-piperidin-4-ylamino]-pyridazine-3-carbonitrile] | 0.63 | 3.02 | 151.4 | 1.25 | 73 | low affinity
19 | N#Cc1ccc(NC2CCN(Cc3cc(F)c(F)c(F)c3)CC2)nn1 [Example E18, 6-[1-(3,4,5-Trifluoro-benzyl)-piperidin-4-ylamino]-pyridazine-3-carbonitrile] | 0.63 | 5.75 | 185 | 1.25 | 95 | low affinity
20 | Cc1c(C#N)nnc(NC2CCN(Cc3cc(F)cc(F)c3)CC2)c1C [Example E19, 6-[1-(3,5-Difluoro-benzyl)-piperidin-4-ylamino]-4,5-dimethyl-pyridazine-3-carbonitrile] | 0.63 | 1.82 | – | 2.5 | 83.66 | –
21 | Cc1cc(NC2CCN(Cc3cc(F)cc(F)c3)CC2)nnc1C#N [Example E20, 6-[1-(3,5-Difluoro-benzyl)-piperidin-4-ylamino]-4-methyl-pyridazine-3-carbonitrile] | 2.5 | 6.17 | – | – | – | –
